Measured values taken from article PMC10692473 (Acta Pharmaceutica Sinica. B, 2023).
Values after ≈ are worked out from the molar mass of the structure shown.

Experiments:
E. coli (ATCC25922) = experiment: Antibacterial assay; conditions: for MIC: Escherichia coli, ATCC25922, read-out: MIC E. coli (ATCC25922)
S. aureus Topo IV = S. aureus Topo IV (Staphylococcus aureus, UniProt P0C1S7); experiment: Topo IV inhibitory assay; type: biochemical
S. aureus (ATCC29213) [1] = experiment: Antibacterial assay; conditions: Staphylococcus aureus, ATCC29213, read-out: MIC S. aureus (ATCC29213)
E. coli gyrase = E. coli gyrase (Escherichia coli, UniProt P0AES6); experiment: Gyrase inhibitory assay; type: biochemical
[2] = system: methicillin-resistant S. aureus (ATCC43300); experiment: Mouse model of sepsis induced by MRSA; type: in vivo, ICR mice; conditions: 10 mg/kg ig, MRSA ATCC43300, observed 7 days
S. aureus gyrase = S. aureus gyrase (Staphylococcus aureus, UniProt P0A0K8); experiment: Gyrase inhibitory assay; type: biochemical
MRSA (ATCC43300) = experiment: Neutropenic murine thigh MRSA infection model; type: in vivo, ICR mice; conditions: neutropenic mouse thigh MRSA infection, iv
E. coli Topo IV = E. coli Topo IV (Escherichia coli, UniProt P20083); experiment: Topo IV inhibitory assay; type: biochemical
E. coli Topo IV, sequence (P20083 whole entry): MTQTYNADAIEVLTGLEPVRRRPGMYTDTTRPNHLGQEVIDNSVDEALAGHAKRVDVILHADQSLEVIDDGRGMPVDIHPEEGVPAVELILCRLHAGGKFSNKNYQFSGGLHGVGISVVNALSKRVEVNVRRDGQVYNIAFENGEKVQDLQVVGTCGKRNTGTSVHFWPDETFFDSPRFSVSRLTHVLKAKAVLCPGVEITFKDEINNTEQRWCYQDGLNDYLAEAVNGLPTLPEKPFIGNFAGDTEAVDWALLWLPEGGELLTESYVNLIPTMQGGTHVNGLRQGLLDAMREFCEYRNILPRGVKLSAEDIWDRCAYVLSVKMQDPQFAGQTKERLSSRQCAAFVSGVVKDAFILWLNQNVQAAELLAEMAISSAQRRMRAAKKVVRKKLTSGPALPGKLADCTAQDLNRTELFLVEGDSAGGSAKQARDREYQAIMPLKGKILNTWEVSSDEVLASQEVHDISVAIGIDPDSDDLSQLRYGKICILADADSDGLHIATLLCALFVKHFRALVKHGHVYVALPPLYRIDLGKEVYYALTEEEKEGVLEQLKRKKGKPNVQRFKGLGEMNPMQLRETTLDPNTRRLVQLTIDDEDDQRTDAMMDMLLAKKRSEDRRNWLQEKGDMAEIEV
E. coli Topo IV, sequence (P0AFI2 whole entry partner): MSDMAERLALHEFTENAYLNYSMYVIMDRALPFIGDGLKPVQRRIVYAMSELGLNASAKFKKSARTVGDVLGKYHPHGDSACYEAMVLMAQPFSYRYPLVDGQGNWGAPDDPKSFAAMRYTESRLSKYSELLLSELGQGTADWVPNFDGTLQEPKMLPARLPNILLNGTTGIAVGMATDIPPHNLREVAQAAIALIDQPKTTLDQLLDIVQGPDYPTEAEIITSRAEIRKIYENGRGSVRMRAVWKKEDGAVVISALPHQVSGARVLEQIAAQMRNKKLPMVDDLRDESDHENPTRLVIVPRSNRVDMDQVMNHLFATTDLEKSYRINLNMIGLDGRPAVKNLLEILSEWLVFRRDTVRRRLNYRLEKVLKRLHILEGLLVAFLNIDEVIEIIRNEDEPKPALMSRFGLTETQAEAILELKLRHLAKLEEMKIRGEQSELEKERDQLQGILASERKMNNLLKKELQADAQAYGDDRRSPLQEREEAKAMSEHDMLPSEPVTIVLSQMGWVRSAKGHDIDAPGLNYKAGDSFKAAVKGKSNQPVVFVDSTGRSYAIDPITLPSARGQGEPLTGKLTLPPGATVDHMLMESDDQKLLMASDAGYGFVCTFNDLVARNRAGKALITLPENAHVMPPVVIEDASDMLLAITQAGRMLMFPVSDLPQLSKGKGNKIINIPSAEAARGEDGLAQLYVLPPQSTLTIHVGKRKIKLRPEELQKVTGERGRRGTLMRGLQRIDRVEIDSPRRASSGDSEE

S. aureus MSSA15-1 = experiment: Antibacterial spectrum; conditions: Staphylococcus aureus, MSSA151
S. aureus MRSA15-2 = experiment: Antibacterial spectrum; conditions: Staphylococcus aureus, MRSA152
S. aureus MRSA15-1 = experiment: Antibacterial spectrum; conditions: Staphylococcus aureus, MRSA151
E. faecalis ATCC51575 = experiment: Antibacterial spectrum; conditions: Enterococcus faecalis
E. faecium EFM19-1 = experiment: Antibacterial spectrum; conditions: Enterococcus faecium, EFM191
S. aureus MSSA15-2 = experiment: Antibacterial spectrum; conditions: Staphylococcus aureus, MSSA152
E. faecalis ATCC51299 = experiment: Antibacterial spectrum; conditions: Enterococcus faecalis
S. aureus VISA5836 = experiment: Antibacterial spectrum; conditions: Staphylococcus aureus
S. epidermidis MSSE15-3 = experiment: Antibacterial spectrum; conditions: Staphylococcus epidermidis, MSSE153
S. aureus VISA5827 = experiment: Antibacterial spectrum; conditions: Staphylococcus aureus
S. aureus GyrB24 = S. aureus GyrB24 (Staphylococcus aureus, UniProt P0A0K8); experiment: Surface plasmon resonance; type: binding
S. aureus (ATCC29213) [3] = experiment: Time-killing curves / killing kinetic studies; type: cell-based; conditions: 4, 8, and 16 × MIC
S. aureus ATCC43300 = experiment: Antibacterial spectrum; conditions: Staphylococcus aureus
HepG2 cells = experiment: Mitochondrial toxicity
S. epidermidis MRSE15-1 = experiment: Antibacterial spectrum; conditions: Staphylococcus epidermidis, MRSE151
S. epidermidis MRSE15-2 = experiment: Antibacterial spectrum; conditions: Staphylococcus epidermidis, MRSE152

SMILES | MIC (E. coli (ATCC25922)) | MIC (S. aureus (ATCC29213) [1]) | IC50 (S. aureus Topo IV) | IC50 (E. coli gyrase) | protective effect / survival in mouse model of sepsis [2] | IC50 (S. aureus gyrase) | IC50 (E. coli Topo IV) | also measured
CO[C@H]1CN(c2ccc(/C(C)=N/O)nn2)CC[C@H]1NC(=O)c1[nH]c(C)c(Cl)c1Cl [Compound 23, 3,4-Dichloro-N-((3S,4R)-1-(6-((E)-1-(hydroxyimino)ethyl)pyridazin-3-yl)-3-methoxypiperidin-4-yl)-5-methyl-1H-pyrrole-2-carboxamide] | 1 µg/mL (≈ 2.27 µM) | ≤ 0.015 µg/mL | – | 2560 nM | weak protective effects | 1490 ± 234 nM | – | –
CN[C@H](CC(C)C)C(=O)N[C@H]1C(=O)N[C@@H](CC(N)=O)C(=O)N[C@H]2C(=O)N[C@H]3C(=O)N[C@H](C(=O)N[C@H](C(=O)O)c4cc(O)cc(O)c4-c4cc3ccc4O)[C@H](O)c3ccc(c(Cl)c3)Oc3cc2cc(c3O[C@@H]2O[C@H](CO)[C@@H](O)[C@H](O)[C@H]2O[C@H]2C[C@](C)(N)[C@H](O)[C@H](C)O2)Oc2ccc(cc2Cl)[C@H]1O [vancomycin, reference compound] | – | – | – | – | – | – | – | effective dose (MRSA (ATCC43300)): 110 mg/kg
CO[C@H]1CN(c2ccc(C(=O)C(F)(F)F)nn2)CC[C@H]1NC(=O)c1[nH]c(C)c(Cl)c1Cl [Compound 22, 3,4-Dichloro-N-((3S,4R)-3-methoxy-1-(6-(2,2,2-trifluoroacetyl)pyridazin-3-yl)piperidin-4-yl)-5-methyl-1H-pyrrole-2-carboxamide] | 1 µg/mL (≈ 2.08 µM) | ≤ 0.015 µg/mL | 2130 ± 753 nM | 788 ± 289 nM | weak protective effects | 45 ± 9 nM | > 10000 nM | –
COC[C@H](C)NC(=O)c1nc(N2CC[C@@H](NC(=O)c3[nH]c(C)c(Cl)c3Cl)[C@@H](OC)C2)sc1C(=O)O [AZD5099 (6), reference compound] | 32 µg/mL (≈ 58.3 µM) | 0.015 µg/mL (≈ 0.0273 µM) | – | 760 nM | survived | 32 ± 14 nM | – | MIC (S. aureus MSSA15-1): 0.03 µg/mL (≈ 0.0547 µM); MIC (S. aureus MRSA15-2): 0.03 µg/mL (≈ 0.0547 µM); MIC (S. aureus MRSA15-1): 0.03 µg/mL (≈ 0.0547 µM); MIC (E. faecalis ATCC51575): 0.03 µg/mL (≈ 0.0547 µM); MIC (E. faecium EFM19-1): 0.03 µg/mL (≈ 0.0547 µM); MIC (S. aureus MSSA15-2): 0.03 µg/mL (≈ 0.0547 µM); MIC (E. faecalis ATCC51299): 0.03 µg/mL (≈ 0.0547 µM); MIC (S. aureus VISA5836): 0.015 µg/mL (≈ 0.0273 µM); MIC (S. epidermidis MSSE15-3): 0.03 µg/mL (≈ 0.0547 µM); MIC (S. aureus VISA5827): 0.015 µg/mL (≈ 0.0273 µM); Kd (S. aureus GyrB24): 83.8 nM; time-kill curve (S. aureus (ATCC29213) [3]): time-dependent bactericidal effect; MIC (S. aureus ATCC43300): 0.03 µg/mL (≈ 0.0547 µM); mitochondrial toxicity (HepG2 cells; HepG2 cells, 400 μmol/L): complete damage; IC50 (HepG2 cells; Homo sapiens, HepG2, read-out: mitochondrial toxicity IC50): < 200000 nM; MIC (S. epidermidis MRSE15-1): 0.03 µg/mL (≈ 0.0547 µM); MIC (S. epidermidis MRSE15-2): 0.03 µg/mL (≈ 0.0547 µM)
COC(=O)c1ccc(N2CC[C@@H](NC(=O)c3[nH]c(C)c(Cl)c3Cl)[C@@H](OC)C2)nn1 [Compound 14, Methyl-6-((3S,4R)-4-(3,4-dichloro-5-methyl-1H-pyrrole-2-carboxamido)-3-methoxypiperidin-1-yl)pyridazine-3-carboxylate] | 1 µg/mL (≈ 2.26 µM) | 0.015 µg/mL (≈ 0.0339 µM) | 7180 ± 2810 nM | 3120 ± 923 nM | weak protective effects | 136 ± 20 nM | > 10000 nM | –

More lines, main results first:

MIC (E. coli (ATCC25922)) | MIC (S. aureus (ATCC29213) [1]) | SMILES | IC50 (S. aureus Topo IV) | IC50 (E. coli gyrase) | protective effect / survival in mouse model of sepsis [2] | IC50 (S. aureus gyrase) | IC50 (E. coli Topo IV) | also measured
128 µg/mL (≈ 209 µM) | 0.5 µg/mL (≈ 0.816 µM) | CO[C@@H]1[C@@H](OC(N)=O)[C@@H](O)[C@H](Oc2ccc3c(O)c(NC(=O)c4ccc(O)c(CC=C(C)C)c4)c(=O)oc3c2C)OC1(C)C [novobiocin (1), novobiocin, reference compound] | 383 ± 120 nM | – | – | – | – | –
> 128 µg/mL | 0.125 µg/mL (≈ 0.237 µM) | CO[C@H]1CN(c2ccc(/C(C)=N/OC(C)(C)C(=O)O)nn2)CC[C@H]1NC(=O)c1[nH]c(C)c(Cl)c1Cl [Compound 26, 2-((((E)-1-(6-((3S,4R)-4-(3,4-Dichloro-5-methyl-1H-pyrrole-2-carboxamido)-3-methoxypiperidin-1-yl)pyridazin-3-yl)ethylidene)amino)oxy)-2-methylpropanoic acid] | 5710 ± 2140 nM | 869 ± 313 nM | – | 52 ± 13 nM | > 10000 nM | MIC E. coli (ATCC25922) (E. coli (ATCC25922)): inactive
> 128 µg/mL | 0.25 µg/mL (≈ 0.501 µM) | CO[C@H]1CN(c2ccc(/C(C)=N/OCC(=O)O)nn2)CC[C@H]1NC(=O)c1[nH]c(C)c(Cl)c1Cl [Compound 25, 2-((((E)-1-(6-((3S,4R)-4-(3,4-Dichloro-5-methyl-1H-pyrrole-2-carboxamido)-3-methoxypiperidin-1-yl)pyridazine-3-yl)ethylidene)amino)oxy)acetic acid] | – | > 10000 nM | – | 172 ± 56 nM | – | –
64 µg/mL (≈ 136 µM) | 32 µg/mL (≈ 68 µM) | CO[C@H]1CN(c2ccc(C(=O)NCCN)nn2)CC[C@H]1NC(=O)c1[nH]c(C)c(Cl)c1Cl [Compound 32, N-(2-Aminoethyl)-6-((3S,4R)-4-(3,4-dichloro-5-methyl-1H-pyrrole-2-carboxamido)-3-methoxypiperidin-1-yl)pyridazine-3-carboxamide] | – | > 10000 nM | – | > 10000 nM | – | –
> 128 µg/mL | 0.03 µg/mL (≈ 0.0659 µM) | CO/N=C(\C)c1ccc(N2CC[C@@H](NC(=O)c3[nH]c(C)c(Cl)c3Cl)[C@@H](OC)C2)nn1 [Compound 24, 3,4-Dichloro-N-((3S,4R)-3-methoxy-1-(6-((E)-1-(methoxyimino)ethyl)pyridazin-3-yl)piperidin-4-yl)-5-methyl-1H-pyrrole-2-carboxamide] | – | > 10000 nM | – | 2070 ± 568 nM | – | –
